# “Also recorded” adds a separate entry of the source.
# What was measured:
# [1] = system: Naïve CD4+ T cells; assay: Th1 differentiation of naïve CD4+ T cells; type: cell-based; details: 2 μM; Th0 or Th1 polarizing conditions 3 days; relative to medium or (11R)-Ctrl
# Experimental: FIGS. 5A-5D are a series of flow cytometry plots showing (11R)-71-85 inhibits Th1 differentiation. Naïve CD4^+ T cells were treated with either 2 μM of (11R)-71-85 or (11R)-Ctrl for two hours and after washing, cells were stimulated with anti-CD3 plus anti-CD28 in Th0 (neutral, FIG. 5A and FIG. 5C) or Th1 polarizing conditions (FIG. 5B and FIG. 5D) for 3 days. Cells were treated again with the same concentration of either medium (first column), (11R)-Ctrl (second column), or (11R)-71-85 (third column) for 2 hours and restimulated with PMA plus ionomycin in the presence of Golgi inhibitor for 4 hours. Expression of T bet and interferon (IFN)-γ (indicators of Th1 cells typical of a pro-inflammatory response) was analyzed by flow cytometry.
# Additional studies were carried out to evaluate the effect of (11R)-71-85 on T helper (Th) cell differentiation. Expression of IFN-γ and T-bet was used as an indicator of Th1 cells typical of a pro-inflammatory response. Naïve CD4^+ T cells were treated with either medium or 2 μM of (11R)-71-85 or (11R)-Ctrl for two hours and after washing, cells were stimulated with anti-CD3 plus anti-CD28 in Th0 (neutral) or Th1 polarizing conditions for 3 days. […] Expression of T bet and IFNγ was analyzed by flow cytometry (FIGS. 5A-5D).
# [2] = system: T cells; assay: T cell proliferation after anti-CD3 and anti-CD28 stimulation; type: cell-based; details: 0.2, 0.5, 1.0, 2.0 or 4.0 μg; anti-CD3 and anti-CD28 for 2 days
# Experimental: FIG. 3 is a graph showing T cell proliferation in response to (11R)-71-85. T cells were purified from spleen and treated with different concentrations of (11R)-71-85 or control peptide (11R)-Ctrl. Cells were then washed and stimulated with anti-CD3 and anti-CD28 for 2 days and finally pulsed with 1 μCi [^3H]-thymidine 14 hours before harvesting. [^3H]-thymidine uptake was determined with a Wallac 1450 MicroBeta Liquid Scintillation Counter.
# The ability of (11R)-71-85 to inhibit T cell proliferation and inflammatory cytokine production was also evaluated. T cells were purified from spleen and treated with different concentrations (0.2, 0.5, 1.0, 2.0 or 4.0 μg) of (11R)-71-85 or the control peptide (11R)-Ctrl. Cells were then washed and stimulated with anti-CD3 and anti-CD28 for 2 days and finally pulsed with 1 μCi [^3H]-thymidine 14 hours before harvesting. [^3H]-thymidine uptake was determined with a Wallac 1450 MicroBeta Liquid Scintillation Counter.
# [3] = system: tumor-infiltrating T cells; assay: PANC02 model, cytokine expression of tumor infiltrating cells; type: in vivo, mice; details: 80 μg intra-tumor every other day for 1 week
# Experimental: WT C57BL/6 mice were injected with 7.5×10^5 PANC02 cells. After 16 days, mice were injected with 80 μg of either (11R)-71-85 or (11R)-Scrambled (Scr) every other day for 1 week. Twenty-four hours after the last intra-tumor injection, tumor infiltrating cells were harvested and restimulated with PMA and ionomycin, or left unstimulated, in the presence of Golgi inhibitor for 4 hours. Expression of cytokines (IL-17A and TNFα—FIG. 10A; IL-10 and IFNγ—FIG. 10B) was determined by flow cytometry.
# The effect of intra-tumor injection of (11R)-71-85 on cytokine secretion from tumor-infiltrating T cells was also evaluated in mice with pancreatic tumors. WT C57BL/6 mice were injected with 7.5×10^5 PANC02 cells and 16 days later mice received intra-tumor injections of 80 μg of (11R)-71-85 or (11R)-Scrambled every other day for 1 week. Twenty-four hours following the last injection, tumor infiltrating cells were harvested and restimulated with PMA and ionomycin, or left unstimulated, in the presence of Golgi inhibitor for 4 hours. Expression of TNF-α, IFNγ, IL-10 and IL-17 was determined by flow cytometry. […] There was no difference in TNF-α secretion after restimulation, which bypasses TCR signaling and activates the classical MAPK cascade. There was no difference between unstimulated and restimulated cells for the other cytokines tested (IFNγ, IL-10, and IL-17; FIGS. 10A-10B).
# [4] = system: Nfatc1 and Irf4 mRNA; assay: Nfatc1 and Irf4 mRNA in spleen T cells after i.v. injection; type: in vivo, mice; details: 50 μg i.v.; total T cells and CD4+ T cells from spleen
# Experimental: FIG. 8 is a series of graphs showing reduction in expression of Nfatc1 and Irf4 in CD4^+ T cells following injection of (11R)-71-85. WT C57BL/6 mice were injected i.v. with 50 μg of DMSO, (11R)-Scrambled, or (11R)-71-85 and either total T cells or CD4±T cells were purified from spleen at different times. Purified cells were stimulated in vitro with anti-CD3/CD28 for 24 hours and the mRNA levels of the indicated transcription factors were determined by quantitative real-time PCR.
# Expression of NFATc1 and IRF4, two transcription factors activated upon TCR stimulation, was also evaluated after intravenous (i.v.) injection of (11R)-71-85. WT C57BL/6 mice were injected i.v. with 50 μg of DMSO, (11R)-Scrambled, or (11R)-71-85, and either total T cells or CD4±T cells were purified from spleen at different times. Purified cells were stimulated in vitro with anti-CD3/CD28 for 24 hours and the mRNA levels of Nfatc1 and Irf4 were determined by quantitative real-time PCR.
substance,measurement,setting,value
"(11R)-71-85: fusion protein: 11 arginine residues added to the N-terminus of the Gadd45α 71-85 peptide (LQIHFTLIQAFCCEN; N-terminal 11 arginine; UniProt P24522 71-85, looked up, fragment)",expression of IFN-γ,[1],reduced expression; also recorded: blunted
same,expression of T-bet,[1],reduced expression; also recorded: blunted
same,T cell proliferation ([3H]-thymidine uptake) in response to TCR stimulation,[2],dose-dependent decrease
same,"expression of the other cytokines tested (IFNγ, IL-10, and IL-17)",[3]; unstimulated and restimulated cells,no difference
same,TNF-α secretion after restimulation with PMA and ionomycin,[3]; versus (11R)-Scrambled,no difference
same,"TNF-α secretion, unstimulated tumor infiltrating cells",[3]; versus (11R)-Scrambled,reduced
same,Irf4 mRNA expression following TCR stimulation,[4],inhibits
same,Nfatc1 mRNA expression following TCR stimulation,[4],inhibits
